The species named for one test is Ovis aries. The experiment in a line: Inhibition of sheep brain tubulin polymerization at 100 uM by fluorescence assay.
Test [1] in a line: Growth inhibition of human HOP92 cells at 10^-5 M after 48 hrs by SRB assay. Format: functional. The following applies: HOP-92, 48 h, read-out: GI. (In general: Sulforhodamine B stains cellular protein and so reports cell mass.)
The subject of the next test is Malme-3M. Description: Growth inhibition of human MALME-3M cells at 10^-5 M after 48 hrs by SRB assay. The format is functional. Conditions: read-out: GI.
Another test relates to A498. The experiment in a line: Growth inhibition of human A498 cells at 10^-5 M after 48 hrs by SRB assay. The following applies: A498, 48 h, read-out: GI. Format: functional.
The test system of a further test is T47D. Description: Growth inhibition of human T47D cells at 10^-5 M after 48 hrs by SRB assay. The following applies: Homo sapiens, T47D, 48 h; read-out: GI. Format: functional.
Test [2] can be described thus: Growth inhibition of human SF295 cells at 10^-5 M after 48 hrs by SRB assay. Format: functional. The following applies: SF-295, 48 h, read-out: GI.
Another test deals with NCI-H522. Description: Growth inhibition of human NCI-H522 cells at 10^-5 M after 48 hrs by SRB assay. The format is functional. The following applies: NCI-H522, 48 h, read-out: GI.
Another test relates to CAKI-1. The experiment in a line: Growth inhibition of human Caki1 cells at 10^-5 M after 48 hrs by SRB assay. Format: functional. The following applies: CAKI-1, 48 h, read-out: GI.
A further test concerns SNB-75. The experiment in a line: Growth inhibition of human SNB75 cells at 10^-5 M after 48 hrs by SRB assay. Format: functional. The following applies: SNB-75, 48 h, read-out: GI.
Test [3] can be described thus: Growth inhibition of human HCT15 cells at 10^-5 M after 48 hrs by SRB assay. Conditions: HCT-15, 48 h, read-out: GI. Format: functional.
The next test deals with HL-60(TB). The experiment in a line: Growth inhibition of human HL-60(TB) cells at 10^-5 M after 48 hrs by SRB assay. Format: functional. Conditions: HL-60, 48 h, read-out: GI.
The test system of the next test is MDA-MB-435. The experiment in a line: Growth inhibition of human MDA-MB-435 cells at 10^-5 M after 48 hrs by SRB assay. Format: functional. Conditions: MDA-MB-435, 48 h, read-out: GI.
Test [4] can be described thus: Growth inhibition of human PC3 cells at 10^-5 M after 48 hrs by SRB assay. Format: functional. Conditions: PC-3, 48 h, read-out: GI.
Test [5] can be described thus: Growth inhibition of human MOLT4 cells at 10^-5 M after 48 hrs by SRB assay. Conditions: MOLT-4, 48 h, read-out: GI. The format is functional.
Another test relates to MCF7. Description: Growth inhibition of human MCF7 cells at 10^-5 M after 48 hrs by SRB assay. The format is functional. The following applies: MCF7, 48 h, read-out: GI.
Test [6] in a line: Growth inhibition of human HCT116 cells at 10^-5 M after 48 hrs by SRB assay. The format is functional. Conditions: HCT-116, 48 h, read-out: GI.
The nature of test [7]: Growth inhibition of human EKVX cells at 10^-5 M after 48 hrs by SRB assay. The format is functional. Conditions: read-out: GI.

Broadly, the inhibition is the drop in the measured response relative to a control, in per cent. A low value points to a response near the control. In the test listed under Ovis aries, `COC(=O)c1c(C(=O)OC)c2c(C)cc(C)cn2c1C(=O)c1cc(OC)c(OC)c(OC)c1` registered an inhibition of 36%.
Same read-out and setting: under `CCOC(=O)c1c(C(=O)OCC)c2cc(C)ccn2c1C(=O)c1cc(OC)c(OC)c(OC)c1` stands 39%.
Consider `CCOC(=O)c1c2c(O)nnc(-c3cc(OC)c(OC)c(OC)c3)c2n2cc(C)cc(C)c12`, for which the inhibition of growth at 10 µM in [1] was 0%; with Malme-3M it was 0%; in the test with A498, 15%; with T47D, 0%; in test [2] it was 0%; in the test on NCI-H522, 1%. Further, the inhibition of growth at 10 µM worked out at 0% in the test with CAKI-1; 5% in the test with SNB-75; 0% in test [3]; 0% with HL-60(TB); 0% with MDA-MB-435; 0% in test [4]. In addition, the results for the inhibition of growth at 10 µM (in test [5]; with MCF7; in test [6]) were 0%, 0% and 6%, respectively. In the test filed under Ovis aries, this molecule displayed an inhibition of 43%.
Consider `COc1cc(C(=O)c2cc(C(=O)O)c3cccc(C)n23)cc(OC)c1OC`, for which the inhibition of growth at 10 µM in the test with Malme-3M came out at 0%; with A498 it was 2%; with T47D it was 0%; in test [2], 0%; in the test with NCI-H522, 15%; in the test with CAKI-1, 0%. Further, the inhibition of growth at 10 µM came to 9% in the test with SNB-75; 7% in [3]; 3% with HL-60(TB); 0% with MDA-MB-435; 5% in [4]; 7% in test [5]. Also, the inhibition of growth at 10 µM was 12% in the test with MCF7 and 0% in test [6]. Besides, the inhibition in the test filed under Ovis aries is 28%.
As to `COc1cc(C(=O)c2cc(C#N)c3cc(C#N)ccn23)cc(OC)c1OC`, the inhibition of growth at 10 µM is 0% in test [1]; 26% in the test with Malme-3M; 10% in the test with A498; 6% with T47D; 4% in test [2]; 12% with NCI-H522. The inhibition of growth at 10 µM is 3% with CAKI-1; 7% in the test on SNB-75; 21% in test [3]; 20% in the test with HL-60(TB); 81% in the test with MDA-MB-435; 8% in test [4]. The results for the inhibition of growth at 10 µM (in test [5]; in the test on MCF7; in test [6]) were 2%, 15% and 2%, respectively. Also, the inhibition in the test listed under Ovis aries turned out to be 46%.
In the case of `CCOC(=O)c1cc(C(=O)c2cc(OC)c(OC)c(OC)c2)n2ccc(C#N)cc12`, the inhibition in the test filed under Ovis aries was 13%.
Regarding `CCOC(=O)c1cc(C(=O)c2ccc(OC)cc2)n2cc(C)cc(C)c12`, the inhibition of growth at 10 µM came to 11% in test [1]; 28% in the test with Malme-3M; 30% with A498; 13% with T47D; 29% in test [7]; 35% in test [2]. Also, the inhibition of growth at 10 µM with NCI-H522 amounted to 43%; in the test with CAKI-1, 24%; in the test on SNB-75, 46%; in [3], 14%; in the test on HL-60(TB), 83%; with MDA-MB-435, 11%. Also, the figures for the inhibition of growth at 10 µM (in test [4]; with MCF7; in [6]) were 20%, 17% and 23%, respectively. The molecule also gave an inhibition in the test filed under Ovis aries of 32%.
As to `CCOC(=O)c1cc(C(=O)c2cc(OC)c(OC)c(OC)c2)n2ccc(N(C)C)cc12`, the inhibition of growth at 10 µM in the test on Malme-3M is 0%; in the test with A498, 11%; with T47D it was 5%; in [7], 9%; in [2], 0%; with NCI-H522, 0%. Further, the inhibition of growth at 10 µM stood at 10% in the test with CAKI-1; 0% in the test with SNB-75; 0% in test [3]; 8% in the test with HL-60(TB); 5% with MDA-MB-435; 12% in test [4]. Moreover, the inhibition of growth at 10 µM in [5] is 7%; in the test with MCF7, 7%; in test [6], 0%. Besides, the inhibition in the test filed under Ovis aries is 36%.
As for `CCOC(=O)c1cc(C(=O)c2cc(OC)c(OC)c(OC)c2)n2cc(C)cc(C)c12`, the inhibition of growth at 10 µM in test [1] stood at 29%; in the test with Malme-3M, 25%; in the test on T47D, 18%; in test [7] it was 6%; in [2], 3%; in the test on NCI-H522, 8%. The inhibition of growth at 10 µM turned out to be 13% with CAKI-1; 11% in the test with SNB-75; 0% in test [3]; 0% in the test with HL-60(TB); 4% with MDA-MB-435; 2% in [4]. Further, the inhibition of growth at 10 µM in [5] is 0%; in the test with MCF7, 4%; in test [6], 45%. The inhibition in the test listed under Ovis aries is 3%.
Take `COC(=O)c1c2c(O)nnc(-c3ccc(OC)cc3)c2n2cc(C)cc(C)c12`: the inhibition of growth at 10 µM in test [1] is 21%; with Malme-3M it was 0%; in the test on A498 it was 45%; in test [2], 2%; with NCI-H522 it was 22%; in the test with CAKI-1, 15%. Also, the inhibition of growth at 10 µM with SNB-75 came out at 19%; in test [3], 0%; with HL-60(TB), 7%; in the test on MDA-MB-435 it was 0%; in test [4], 24%; in test [5] it was 15%. Moreover, the inhibition of growth at 10 µM in the test on MCF7 was 6%; in [6], 2%. In the test listed under Ovis aries, the inhibition turned out to be 58%.
For `CCOC(=O)c1c(C(=O)OCC)c2cc(N(C)C)ccn2c1C(=O)c1cc(OC)c(OC)c(OC)c1`, the inhibition in the test listed under Ovis aries was 26%.
As to `COc1cc(C(=O)c2cc(C#N)c3c(C#N)cccn23)cc(OC)c1OC`, the inhibition of growth at 10 µM in [1] was 8%; with Malme-3M it was 28%; in the test on A498, 0%; in the test with T47D it was 10%; in the test with NCI-H522 it was 0%; with CAKI-1, 6%. Moreover, the inhibition of growth at 10 µM in the test on SNB-75 is 69%; in test [3] it was 23%; in the test with HL-60(TB), 7%; in the test with MDA-MB-435, 54%; in test [4], 12%; in test [5] it was 0%. For the same molecule, the figures for the inhibition of growth at 10 µM (in the test on MCF7; in test [6]) were 29% and 11%, respectively. In the test listed under Ovis aries, this molecule showed an inhibition of 39%.
In the test filed under Ovis aries, `CCOC(=O)c1cc(C(=O)c2cc(OC)c(OC)c(OC)c2)n2ccc3ccccc3c12` registered an inhibition of 41%.
Turning to `COC(=O)c1c(C(=O)OC)c2cc(OC)ccn2c1C(=O)c1cc(OC)c(OC)c(OC)c1`, the inhibition of growth at 10 µM with Malme-3M amounted to 0%; in the test on A498 it was 0%; in the test on T47D it was 6%; in [7] it was 7%; in [2], 11%; in the test on NCI-H522, 4%. The inhibition of growth at 10 µM with CAKI-1 stood at 2%; with SNB-75 it was 0%; in test [3], 13%; with HL-60(TB), 1%; with MDA-MB-435 it was 4%; in test [5], 0%. Moreover, the inhibition of growth at 10 µM was determined as 0% in the test with MCF7 and 2% in test [6]. Also, in the test listed under Ovis aries, the inhibition amounted to 16%.
`COC(=O)c1c(C(=O)OC)c2cccc(C)n2c1C(=O)c1cc(OC)c(OC)c(OC)c1` registered an inhibition in the test listed under Ovis aries of 32%.

(Values after ChEMBL document CHEMBL3352214, “Studies on indolizines. Evaluation of their biological properties as microtubule-interacting agents and as melanoma targeting compounds” (Eur J Med Chem, 2015).)
